In ChEMBL document CHEMBL1201862, “PubChem BioAssay data set” (2004):
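Values below derive from 48-hour exposures of cells grown in 96-well plates, with endpoints linearly interpolated between the two concentrations bracketing the appropriate inhibition level. At the GI50, growth is halved.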 Calls of active or inactive are those of the source. Cut-off read from the data, not from the text of the source: active = GI50 up to about 1.1 µM and inactive = higher.

What was measured:
Assay in all cases: NCI anticancer screen, dose series, 48 h
A498 = tested on: A498
CCRF-CEM = tested on: CCRF-CEM
COLO 205 = tested on: COLO 205
DLD-1 = tested on: DLD-1
EKVX = tested on: EKVX
M14 = tested on: M14
NCI-H226 = tested on: NCI-H226
NCI-H522 = tested on: NCI-H522
OVCAR-4 = tested on: OVCAR-4
OVCAR-5 = tested on: OVCAR-5
SF-295 = tested on: SF-295
SN12C = tested on: SN12C
SNB-75 = tested on: SNB-75
SW-620 = tested on: SW-620
TK-10 = tested on: TK-10
UO-31 = tested on: UO-31
OVCAR-3 = tested on: OVCAR-3
DU-145 = tested on: DU-145
MDA-MB-231 = tested on: MDA-MB-231
PC-3 = tested on: PC-3

Measured: GI50

CCOC(=O)C(=C=Cc1cccs1)C(=O)c1ccccc1
inactive: A498 19.9 µM | CCRF-CEM 29.1 µM | COLO 205 17.6 µM | DLD-1 14.3 µM | EKVX 16.7 µM | M14 15 µM | NCI-H226 15 µM | NCI-H522 15.1 µM | OVCAR-4 17 µM | OVCAR-5 15.2 µM | SF-295 17.8 µM | SN12C 15.8 µM | SNB-75 15.8 µM | SW-620 18 µM | TK-10 15 µM | UO-31 14.3 µM

C=CCc1cc(-c2cc(CC=C)c(O)c(CNC)c2)cc(CNC)c1O
inactive: A498 20.3 µM | CCRF-CEM 7.4 µM | COLO 205 18.5 µM | DLD-1 15.4 µM | M14 15.6 µM | NCI-H226 16.9 µM | NCI-H522 14.8 µM | OVCAR-3 14.7 µM | OVCAR-4 16.5 µM | SF-295 16.9 µM | SN12C 17.1 µM | SNB-75 11 µM | SW-620 17.3 µM | TK-10 17.7 µM | UO-31 12.9 µM

COc1ccc(/C=N/N=C(\N)NO)cc1O
inactive: CCRF-CEM > 100 µM | COLO 205 25.8 µM | DLD-1 33.8 µM | EKVX 29.3 µM | NCI-H226 33.4 µM | NCI-H522 > 10 µM | OVCAR-4 45.4 µM | OVCAR-5 > 100 µM | SN12C 30.9 µM | SW-620 44.7 µM | UO-31 45 µM

N#CC1CC2(C(=O)C1=O)c1ccccc1-c1ccccc12 (stereo not given)
inactive: A498 > 100 µM | CCRF-CEM 67.5 µM | COLO 205 > 100 µM | DLD-1 > 100 µM | EKVX > 100 µM | M14 > 100 µM | NCI-H226 > 100 µM | NCI-H522 > 100 µM | OVCAR-3 87.7 µM | OVCAR-4 > 100 µM | OVCAR-5 > 100 µM | SF-295 > 100 µM | SN12C > 100 µM | SNB-75 > 100 µM | SW-620 > 100 µM | TK-10 > 100 µM | UO-31 > 100 µM

N#CC(C#N)=C1SCC(=O)CS1
inactive: A498 > 100 µM | CCRF-CEM > 100 µM | COLO 205 > 100 µM | DLD-1 > 100 µM | EKVX > 100 µM | M14 > 100 µM | NCI-H226 > 100 µM | NCI-H522 > 100 µM | OVCAR-3 > 100 µM | OVCAR-4 > 100 µM | OVCAR-5 > 100 µM | SF-295 > 100 µM | SN12C > 100 µM | SNB-75 89.1 µM | SW-620 > 100 µM | TK-10 > 100 µM | UO-31 > 100 µM

O=C1CC(c2ccccc2)NCCCCN2CC(CN1)C(C(O)c1ccccc1)C2=O (stereo not given)
inactive: A498 > 100 µM | CCRF-CEM > 100 µM | COLO 205 > 100 µM | DU-145 > 100 µM | EKVX > 100 µM | M14 > 100 µM | MDA-MB-231 > 100 µM | NCI-H226 > 100 µM | NCI-H522 > 100 µM | OVCAR-3 > 100 µM | OVCAR-4 > 100 µM | OVCAR-5 > 100 µM | PC-3 > 100 µM | SF-295 > 100 µM | SN12C > 100 µM | SNB-75 95.5 µM | SW-620 > 100 µM | TK-10 > 100 µM | UO-31 > 100 µM

C=Cc1c(-c2ccccc2)cnc2[nH]c3ccccc3c12
inactive: A498 > 50 µM | CCRF-CEM > 50 µM | COLO 205 > 50 µM | DLD-1 > 50 µM | EKVX 3.4 µM | M14 > 50 µM | NCI-H522 > 50 µM | OVCAR-3 > 50 µM | OVCAR-4 > 50 µM | OVCAR-5 > 50 µM | SF-295 > 50 µM | SN12C > 50 µM | SNB-75 6.59 µM | SW-620 > 50 µM | TK-10 > 50 µM | UO-31 > 50 µM

CC(=O)N1CN2C(=O)CCC2c2ccccc21 (stereo not given)
inactive: A498 > 100 µM | CCRF-CEM > 100 µM | COLO 205 > 100 µM | DU-145 > 100 µM | EKVX > 100 µM | M14 > 100 µM | MDA-MB-231 > 100 µM | NCI-H226 > 100 µM | NCI-H522 > 100 µM | OVCAR-3 > 100 µM | OVCAR-4 > 100 µM | OVCAR-5 > 100 µM | PC-3 > 100 µM | SF-295 > 100 µM | SN12C > 100 µM | SNB-75 > 100 µM | SW-620 > 100 µM | TK-10 > 100 µM | UO-31 > 100 µM

[N-]=[N+]=NC(c1cn(C2CC(O)C(CO)O2)c(=O)[nH]c1=O)C(Br)Br (stereo not given)
inactive: CCRF-CEM > 100 µM | COLO 205 > 100 µM | DLD-1 > 100 µM | EKVX > 100 µM | M14 > 100 µM | NCI-H226 > 100 µM | NCI-H522 > 100 µM | OVCAR-3 > 100 µM | OVCAR-5 > 100 µM | SF-295 > 100 µM | SN12C > 100 µM | SNB-75 > 100 µM | SW-620 > 100 µM | TK-10 > 100 µM | UO-31 > 100 µM
